Assay [1] deals with isolated chick ileum (EP3 receptor preparation). Description: Isolated chick ileum contraction. The conditions noted are these: compared to prostaglandin E2, 10^−6 M. How it is done: (§1) Smooth muscle tension of isolated tissues was measured isometrically with force displacement transducers (Grass FT-03) and recorded on Grass Polygraphs (Models 7G and 79E). The organ baths contained Krebs solution maintained at 37° C. and gassed with 95% 02/5% CO2 to give a pH of 7.4. The Krebs solution had the following composition (mM): NaCl, 118.0; KCl, 4.7; KH2PO4, 1.2; CaCl2, 1.9; MgSO4, 1.18; NaHCO3, 25.0; glucose, 11.7; indomethacin, 0.001.
The chick ileum is an EP3 receptor preparation. Portions of the chick ileum of 1.5 cm length were suspended under 1 g of tension. After a one hour equilibration period, a standard dose-response curve for PGE2 was obtained in a non-cumulative fashion with 30 minute wash-out periods between individual doses. Subsequently, test compound was added non-cumulatively. A maximal dose of PGE2 (10^−6 M) was finally given to serve as a second reference standard. Contractile activity at each concentration was then calculated as a % of the maximal PGE2 response reached at a 10^−6 M concentration.

Assay [2] deals with isolated guinea pig ileum (EP1 receptor preparation). Kind of assay: Isolated guinea pig ileum contraction. Here is the method: as §1
The guinea pig ileum is an EP1 receptor preparation. An approximately 1.5 cm segment of guinea pig ileum was suspended in a jacketed organ bath under 1 g tension. Following a 1 hr equilibration period, a wash-out dose response curve for PGE2 was obtained. 30 min wash-out periods were allowed between doses. […] A final administration of PGE2 10^−6 M was given as a reference. Data were expressed as % maximal of the PGE2 response.

In assay [3] the test system is human platelets (DP-, TP- and IP-receptor types). Kind of assay: Human platelet aggregation and inhibition of ADP-induced aggregation. The format is cell-based. How it is done:
Prostanoid activity at the DP-, TP- and IP-receptor types was determined by an ability to cause aggregation (TP-receptor activity) or to inhibit ADP-induced aggregation of human platelets in vitro (DP- and IP-receptor activity). Fresh whole blood was obtained from consenting healthy human volunteers and mixed with acid citrate-dextrose (ACD). The blood was centrifuged at 1000 rpm for 15-20 minutes to obtain platelet rich plasma (PRP). 4.5 μl of prostanoid or vehicle was added to 450 μl of PRP and incubated for 2 minutes at 37° C. in a Payton aggregometer and observed for any aggregatory activity. 2×10^−5 M ADP (final concentration) was then added to induce full aggregation. Inhibition of aggregation was calculated as the percentage difference between aggregation evoked by 2×10^−5 M ADP in the absence and presence of drug. Aggregatory activity was calculated as the percent aggregation induced by the prostanoid relative to the aggregation induced by 2×10^−5 M ADP. Standard aggregatory responses to 2×10^−5 M ADP alone were performed at the beginning and end of each experiment.

Assay [4] concerns the target human FP receptor (Homo sapiens, UniProt P43088). Description: Ca2+ signal in CRL 1497 cells. Also noted: endogenous in cells; host or cells: CRL 1497 human dermal fibroblasts; Δ[Ca^2+]i mean χ ± SEM: unit not given here. The note with it: for Δ[Ca^2+]i mean χ ± SEM: n = 4. Format: cell-based. Here is the method: Human CRL 1497 cells were plated in culture flasks and fed Dulbecco's modified Eagle's medium (DMEM) containing 10% fetal calf serum, 2 mM 1-glutamine, and 0.05 mg/ml gentacin (all purchased from Gibco, Grand Island, N.Y.). Cell cultures were maintained in a humidified atmosphere of 95% air, 5% CO2 and grown to confluency. Cells were removed from the culture flasks by approximately 1 min treatment with trypsin 0.05%/0.53 mM EDTA in Hanks Balanced Salt Solution (HBSS, Gibco, Grand Island, N.Y.) at 37° C. Proteolytic activity was arrested by adding 5 ml of 10% fetal bovine serum in DMEM. The cells were consecutively washed in Hank's BSS and medium containing 140 mM NaCl, […], 1 mM MgCl2, 1.5 mM CaCl2, 10 mM HEPES: TRIS, 5 mM glucose, 5 mM Na pyruvate, 0.1% bovine serum albumin at pH 7.4: Centrifugation for the washes was performed for 15 minutes at 200 g at room temperature. Cells were counted, resuspended in the above medium and incubated with 2×10^−6 M Fura 2/acetoxymethyl ester in a shaking water bath for 30 minutes at 37° C. The cells were subsequently washed in medium as above and resuspended at a concentration of 2×10^6 cells ml^−1. Aliquots of 0.5 ml cell suspension were then added to autocap microtubes to provide 10^6 cells per experimental determination of intracellular free Ca^2+ concentration ([Ca^2+]i).
Fluorescence was measured in a Perkin-Elmer LS-5 fluorescence spectrophotometer at excitation and emission wavelengths of 340 and 492 nm, respectively, with both slits at 10 nm. For each experimental determination 10^6 cells were washed (200×g for 5 min) and suspended in a 2 ml cuvette with buffer containing 120 mM NaCl, 6 mM KCl, 1 mM MgSO4, 1.5 mM CaCl2, 20 mM HEPES, 1 mg ml^−1 glucose and 1 mg ml^−1 Na pyruvate. Stirring was achieved by an overhead-mounted, paddle stirrer with the temperature maintained at 37° C. The cells were lysed with digitonin (10 μl of 100 mg ml^−1 DMSO) to obtain fmax. EGTA (100 mM) and sufficient 10N NaOH to adjust the pH to 8.5 were then successively added to obtain fmin.

human FP receptor, sequence (P43088 whole entry): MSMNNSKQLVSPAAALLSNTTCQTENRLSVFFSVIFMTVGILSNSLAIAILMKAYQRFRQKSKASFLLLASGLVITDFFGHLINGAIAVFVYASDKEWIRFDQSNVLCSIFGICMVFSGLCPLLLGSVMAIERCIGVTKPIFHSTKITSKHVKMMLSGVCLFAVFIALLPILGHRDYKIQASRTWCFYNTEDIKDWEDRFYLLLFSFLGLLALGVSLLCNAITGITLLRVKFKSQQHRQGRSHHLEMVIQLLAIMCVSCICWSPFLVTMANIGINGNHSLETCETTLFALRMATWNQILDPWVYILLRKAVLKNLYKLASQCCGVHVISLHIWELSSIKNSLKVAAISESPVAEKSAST

With `CCCCC[C@H](O)/C=C/[C@@H]1[C@@H](C/C=C\CCCC(=O)NCCO)[C@@H](O)C[C@H]1O` [PGF2α 1-ethanolamide, (5Z,8α,9α,11α,13E,15S)-9,11,15-trihydroxy-N-(2-hydroxyethyL)prosta-5,13-dien-1-amide], the “effect on the isolated chick ileum” value in assay [1] is given as “weak partial agonist”. In addition, the Emax at 10 µM in assay [2] (Cavia porcellus, 10^−5 M, reference contraction PGE2 10^−6 M, n = 4, read-out: % Maximal response mean χ ± SEM) was 9.7 ± 4.2%. Besides, the Emax at 1 µM in assay [2] (Cavia porcellus, 10^−6 M, reference contraction PGE2 10^−6 M, n = 4, read-out: % Maximal response mean χ ± SEM) was 4 ± 2.6%. Further, the Emax at 0.1 µM in assay [2] (Cavia porcellus, 10^−7 M, reference contraction PGE2 10^−6 M, n = 4, read-out: % Maximal response mean χ ± SEM) was 0%. The Emax at 0.01 µM in assay [2] (Cavia porcellus, 10^−8 M, reference contraction PGE2 10^−6 M, n = 4, read-out: % Maximal response mean χ ± SEM) came to 0%. The “effect in the guinea pig ileum” value in assay [2] (compared with chick ileum) is on record as “less effective”. Also, in assay [3], the “effect on platelets (aggregation; inhibition of ADP induced aggregation)” value was “No effect”. Moreover, the “Δ[Ca^2+]i mean χ ± SEM” value is reported as 97.9 ± 10.8 in assay [4] (10^−5 M, CRL 1497 cells); 45.8 ± 11.5 in assay [4] (10^−6 M, CRL 1497 cells); 13.5 ± 3.9 in assay [4] (10^−7 M, CRL 1497 cells); 3.4 ± 1.5 in assay [4] (10^−8 M, CRL 1497 cells). The “difference in potency at the human FP receptor vs PGF2α” value in assay [4] (CRL 1497 cells, Ca2+ signal) is on record as “about a one hundred fold difference in potency”. In addition, the EC50 in assay [4] (CRL 1497 human dermal fibroblasts, read-out: E.C.50, Ca2+ signal) worked out at 1.59 µM.

Values taken from US6395787B1, “Ocular hypotensive lipids” (Allergan Sales, Inc., priority 2000, dated 2002).
